{"source": "patent US8309319B2", "about": "“Fluorescent probe for measurement of UDP-glucuronosyltransferase” (The University of Tokyo, priority 2007, dated 2012)", "key": {"[1]": {"biological_target": "T1, UGT1A1 (Homo sapiens, UniProt P22309)", "T1 sequence (P22309 26-533)": "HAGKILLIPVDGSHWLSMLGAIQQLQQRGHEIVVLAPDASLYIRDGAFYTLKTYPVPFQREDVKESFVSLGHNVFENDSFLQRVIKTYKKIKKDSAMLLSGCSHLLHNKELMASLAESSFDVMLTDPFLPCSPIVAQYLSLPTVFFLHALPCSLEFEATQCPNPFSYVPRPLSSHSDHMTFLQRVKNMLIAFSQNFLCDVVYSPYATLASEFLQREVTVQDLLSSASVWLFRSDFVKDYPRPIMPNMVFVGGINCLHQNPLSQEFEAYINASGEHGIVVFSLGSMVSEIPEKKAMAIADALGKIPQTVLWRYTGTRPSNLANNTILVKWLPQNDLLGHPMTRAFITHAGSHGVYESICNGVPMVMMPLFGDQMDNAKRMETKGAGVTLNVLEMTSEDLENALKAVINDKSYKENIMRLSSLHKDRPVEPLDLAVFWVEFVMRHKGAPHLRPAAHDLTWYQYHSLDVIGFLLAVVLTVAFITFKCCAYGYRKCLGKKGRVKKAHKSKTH", "test": "Reactivity with UGT1A1, absorbance method (decrease of absorbance)", "type": "biochemical", "set-up": "host or cells: microsomes expressing UGT1A1", "details": "probe 10 μM, absorbance at 480 to 510 nm; compared with 2-Me-4-OMe-TG"}, "[2]": {"biological_target": "T1, UGT1A1", "test": "Reactivity of fluorescence increasing (d-PeT) type probes with UGT1A1", "type": "biochemical", "set-up": "host or cells: microsomes expressing UGT1A1", "details": "FIG. 4", "protocol": "The fluorescein derivatives of fluorescence decreasing type, of which fluorescence is decreased by a reaction with UGT, were obtained in Examples 1 and 2. Further researches were conducted in order to provide fluorescein derivatives of fluorescence increasing type of which fluorescence is increased by a reaction with UGT. Functionally, the structure of fluorescein can be recognized as two parts having different functions, i.e. the benzene ring moiety and the xanthene ring moiety. By appropriately choosing substituents on the benzene ring moiety among them, fluorescence thereof can be controlled by using PeT (J. Am. Chem. Soc., 123, pp. 2530-2536, 2001). […] Therefore, it is considered that there can be developed a fluorescence increasing type fluorescein derivative of which fluorescence is quenched by PeT before the reaction with UGT when the fluorescein derivative is a phenolate type, and fluorescence is emitted after the reaction with UGT when the fluorescein derivative is an O-glycoside type, by appropriately choosing the substituents on the benzene ring moiety (J. Am. Chem. Soc., 126, pp. 14079-14085, 2004). From such a point of view, 6-carboxyfluorescein dimethyl ester and 5,6-dicarboxyfluorescein trimethyl ester were designed as fluorescence increasing (d-PeT) type fluorescein derivatives, and reactivity thereof with UGT1A1 was confirmed."}, "[3]": {"biological_target": "T1, UGT1A1", "test": "Reactivity with UGT1A1, fluorescence method (decrease in fluorescence intensity)", "details": "37° C."}, "[4]": {"details": "probe 1 μM, excitation 480 to 510 nm"}}}
{"smiles": "Cc1ccc(-c2c3ccc(=O)cc-3oc3cc(O)ccc23)c([N+](=O)[O-])c1", "note": "[Derivative 15]", "values": [{"measurement": "decrease rate of absorbance", "setting": "[1]", "result": "higher decrease rate of absorbance"}]}
{"smiles": "COC(=O)c1ccc(C(=O)OC)c(-c2c3ccc(=O)cc-3oc3cc(O)ccc23)c1", "note": "[6-carboxyfluorescein dimethyl ester]", "values": [{"measurement": "change of fluorescence intensity with passage of the reaction time", "setting": "[2]", "result": "increase of fluorescence intensity was observed"}]}
{"smiles": "COC(=O)c1cc(C(=O)OC)c(-c2c3ccc(=O)cc-3oc3cc(O)ccc23)cc1C(=O)OC", "note": "[5,6-dicarboxyfluorescein trimethyl ester]", "values": [{"measurement": "change of fluorescence intensity with passage of the reaction time", "setting": "[2]", "result": "increase of fluorescence intensity was observed"}]}
{"smiles": "COc1ccc(-c2c3ccc(=O)cc-3oc3cc(O)ccc23)c(C)c1", "note": "[Derivative 11]", "values": [{"measurement": "decrease of fluorescence intensity to", "setting": "[3]; [4]", "result": "≤ 0.1", "unit": "%"}, {"measurement": "decrease rate of fluorescence", "setting": "[3]; [4]", "result": "high decrease rate of fluorescence"}]}
{"smiles": "Nc1ccccc1-c1c2ccc(=O)cc-2oc2cc(O)ccc12", "note": "[Derivative 6]", "values": [{"measurement": "reactivity with UGT1A1", "setting": "[3]; UGT1A1 microsomes 0.1 mg/mL, UDP-glucuronic acid 2 mM, probe 1 μM (fluorescence) or 10 μM (absorbance)", "result": "weak"}]}
